Measurements taken from patent publication US5124083A, “3-substituted and 3,3-disubstituted 4-oxoretinoic acids and their esters” (Southern Research Institute, priority 1990, dated 1992).
Like-named read-outs stand apart in the source and are kept apart here.

Assays:
[1] = tested on: tracheas obtained from vitamin A-deficient hamsters; conditions: value taken from Newton et al.; read-out: ED50, hamster trachea organ culture assay; cited from earlier work
mammary carcinogenesis = conditions: rats; Moon et al.; cited from earlier work
[2] = Roberts and Frolik, Roberts et al.; cited from earlier work
ornithine decarboxylase = experiment: Ornithine decarboxylase assay (reduction of TPA-induced ODC activity in mouse skin); assay type: in vivo; conditions: TPA-induced ODC, mouse skin; nanomoles of carbon dioxide per milligram of protein per half hour
Text: A bioassay in vivo for activity in the prevention of carcinogen-induced cancer is based on the reduction by a retinoid of the amount of ornithine decarboxylase (ODC) induced in mouse skin by the tumor promoter 12-O-tetradecanoylphorbol 13-acetate (TPA). Verma et al. (Cancer Research, Vol. 38, pages 793-801, 1978), reported that "application of the potent tumor-promoting agent 12-O-tetradecanoylphorbol 13-acetate (TPA) to mouse skin leads to a rapid and transient induction of epidermal ornithine decarboxylase activity". They state, further, that "inhibition of this enzyme activity by retinoids may be a simple and rapid in vivo test for assessing the potential prophylactic activity of new synthetic retinoids". All of the tested 4-oxoretinoid analogues reduced TPA-induced ODC activity. The compounds of Examples 2-4, 8, 11, 17, 18, and 20-23 reduced ODC activity to 22-47% of the ODC activity in the control mice and are, therefore, very active in this assay for cancer chemopreventive activity.
Ornithine Decarboxylase Assay
Assays for the reduction by 4-oxoretinoids of ornithine decarboxylase activity induced by 12-O-tetradecanoylphorbol 13-acetate (TPA) were performed by the procedure of Verma et al., Cancer Research, Vol. 38, pages 793-801 (1978).

skin papillomas = experiment: Mouse antipapilloma assay (DMBA-TPA skin papillomas); assay type: in vivo; parameters: Average Number of Skin Papillomas/Mouse as % of No. of Papillomas/Mouse in the DMBA-TPA Control Group of Mice: concentration or dose not given beside the values
Text: Application of the carcinogen DMBA to mouse skin followed by application of the tumor promoter TPA causes the formation of papillomas. Certain retinoids applied to the same area of mouse skin reduce or prevent papilloma formation (e.g. H. Mayer, W. Bollag, R. Hanni, and R. Ruegg, Experientia, Vol 34, pages 1105-1119, 1978; R. K. Boutwell and A. K. Verma, Pure and Applied Chemistry, Vol. 51, pages 857-866, 1979). The antipapilloma assay is a direct test of the capability of a retinoid to prevent tumor formation in vivo. It has been used to select retinoids for clinical development. The tested retinoids reduced papilloma formation to 27-83% of papilloma formation in untreated control mice. […] The number of papillomas in mice treated with either of these six retinoids was 27-40% of the number of papillomas on untreated mice; or, differently expressed, papilloma formation was reduced by 60-73%.
In this assay, tumors are initiated in mice by applying the carcinogen DMBA to the skin of mice and subsequently applying the promoter TPA. The method is that of Verma et al., Cancer Research, Vol. 39, pages 419-425, 1979.

[3] = tested on: tracheas obtained from vitamin A-deficient hamsters; experiment: Hamster trachea organ culture assay (reversal of squamous metaplasia and keratinization); assay type: cell-based; conditions: Mesocricetus auratus; reversal of keratinization, vitamin A-deficient hamster trachea in culture; read-out: ED50, hamster trachea organ culture assay
Protocol: Some of these 4-oxoretinoic acid analogues were evaluated in the hamster-trachea organ-culture assay described in Clamon et al., Nature, Vol. 250, pages 64-66, 1974; Sporn et al., Nature, Vol. 263, pages 110-113, 1976; and Newton et al., Cancer Res., Vol. 40, pages 3413-3425, 1980. This bioassay is specific for retinoids and assesses the capacity of retinoids to reverse keratinization in vitamin A-deficient hamster trachea in culture. Therefore, it is a measure of the capacity of a retinoid to control differentiation of epithelial cells, and "it is believed to have significant predictive value for the potential use of a new retinoid for prevention of epithelial cancer" (Newton et al., Cancer Res., Vol. 40, pages 3413-3425, 1980). (See Example 25). Also, data obtained by Newton et al., (Cancer Res., Vol. 40, pages 3413-3425, 1980) in assays of six all-trans or 13-cis retinamides are included in Table II for comparison.
Hamster Trachea Organ Culture Assay
4-Oxoretinoids were evaluated for their capacity to reverse squamous metaplasia and keratinization in organ cultures of tracheas obtained from vitamin A-deficient hamsters. The methods and procedures were those described by Sporn and co-workers (Clamon et al. and Newton et al., loc. cit.).

[4] = tested on: F9 Embryonal Carcinoma Cells; experiment: Induction of differentiation of F9 embryonal carcinoma cells (plasminogen activator release); assay type: cell-based; conditions: Mus musculus, 96 h; molar concentration causing 50% induction of differentiation, by release of plasminogen activator; 4 days; read-out: Differentiation of F9 Embryonal Carcinoma Cells ED50
Protocol: Induction of differentiation of cancer cells is a potential mode of cancer chemoprevention. […] Elevated release of plasminogen activator by F9 cells in the presence of retinoids is a marker for differentiation. Induction of differentiation of F9 cells by several of the retinoids of this invention was evaluated, and the results are summarized in Table I (Example 24) as values of ED50. All of the tested 4-oxoretionoic acid analogues induce differentiation at low concentrations (ED50 =[…] -10^-10 molar) and, therefore, are very effective inducers of differentiation of mouse F9 embryonal carcinoma cells. […] Under the conditions of this assay, ester derivatives might be hydrolyzed partially to the carboxylic acids.
Assay for Induction of Differentiation of Cancer Cells to Normal Cells
Evaluation of the differentiation potential of 4-oxoretinoids was carried out with an embryonal carcinoma cell line, F9. Elevation of plasminogen activator release by F9 cells in the presence of retinoids is a marker for inducing differentiation into parietal endoderm (Strickland and Mahdavi, loc. cit.; Strickland and Sawey, loc. cit.). F9 cells were grown at a density of 1×10^5 cells/mL in the presence or absence of […], 10^-8, 10^-9, 10^-10, and 10^-11 or molar retinoids for 4 days. Aliquots (20 μL) of the harvest fluid were mixed with 0.13 μM plasminogen, 0.3 mM H-D-Val-Leu-Lys-p-nitroaniline (a synthetic substrate of plasmin), 0.1% Tween 80, and 25 μg of fibrinogen fragments in a final volume of 0.2 mL of Tris-HCl, pH 7.5. After incubation for 4 hours at 25° C., the generation of p-nitroaniline was measured by absorbance at 405 nm. The average absorbencies from duplicate experiments were plotted (semilog plots) versus concentration (molarity). The ED50 values were determined by finding the midpoint between the maximal and minimal absorbance values.
Induction of Differentiation of Cancer Cells
^a ED50 is the molar concentration of the retinoid that causes
50% induction of differentiation of the carcinoma cells as measured by th
release of plasminogen activator.

certain neoplastic cells = conditions: literature; cited from earlier work
[5] = tested on: pre-neoplastic and malignant epithelial lesions; conditions: literature; cited from earlier work

Compound: CCNC(=O)/C=C(C)/C=C/C=C(C)/C=C/C1=C(C)CCCC1(C)C [All-trans-N-ethylretinamide]
- EC50 [1]: 1 nM

Compound: CC1=C(/C=C/C(C)=C/C=C/C(C)=C/C(=O)Nc2ccc(O)cc2)C(C)(C)CCC1 [All-trans-N-(4-hydroxyphenyl)-retinamide]
- Suppression of mammary carcinogenesis (mammary carcinogenesis): suppress mammary carcinogenesis in rats
- EC50 [1]: 0.3 nM

Compound: CC1=C(/C=C/C(C)=C/C=C/C(C)=C\C(=O)NCCO)C(C)(C)CCC1 [13-Cis-N-(2-hydroxyethyl)-retinamide]
- EC50 [1]: 0.3 nM

Compound: CC1=C(/C=C/C(C)=C/C=C/C(C)=C/C(=O)O)C(C)(C)CCC1=O [all-trans-4-oxoretinoic acid]
- Metabolite identity [2]: one of the metabolites of all-trans-retinoic acid

Compound: CC1=C(/C=C/C(C)=C/C=C/C(C)=C\C(=O)Nc2ccc(O)cc2)C(C)(C)CCC1 [13-Cis-N-(4-hydroxyphenyl)-retinamide]
- Suppression of mammary carcinogenesis (mammary carcinogenesis): suppress mammary carcinogenesis in rats
- EC50 [1]: > 1 nM

Compound: COC(=O)/C=C(C)/C=C/C=C(C)/C=C/C1=C(C)C(=O)C(C)CC1(C)C (stereo not shown) [Example 2, Methyl 3-Methyl-4-oxoretinoate]
- Ornithine Decarboxylase Activity, Average % of Control Group (ornithine decarboxylase): 33 % of Control Group
- Average Number of Skin Papillomas/Mouse as % of No. of Papillomas/Mouse in the DMBA-TPA Control Group of Mice (skin papillomas; DMBA-initiated, TPA-promoted mouse skin): 27%
- Reduction of papilloma formation, summary range (skin papillomas; range over the six most active retinoids): 60-73%
- Papilloma formation as % of papilloma formation in untreated control mice, summary range (skin papillomas; summary of Table IV): 27-40%
- EC50 [3]: 4 nM
- EC50 [4]: 2 nM

Compound: CC1=C(/C=C/C(C)=C/C=C/C(C)=C/C(=O)O)C(C)(C)CCC1 [all-trans-retinoic acid]
- Induction of differentiation of certain neoplastic cells to terminally differentiated cells (certain neoplastic cells): highly active inducers of differentiation
- Prophylactic effect on development of pre-neoplastic and malignant epithelial lesions [5]: exert a prophylactic effect

Compound: CCNC(=O)\C=C(C)/C=C/C=C(C)/C=C/C1=C(C)CCCC1(C)C [13-Cis-N-ethylretinamide]
- EC50 [1]: 0.3 nM

Compound: CC1=C(/C=C/C(C)=C/C=C/C(C)=C/C(=O)NCCO)C(C)(C)CCC1 [All-trans-N-(2-hydroxyethyl)-retinamide]
- EC50 [1]: 0.1 nM

Compound: CC1=C(/C=C/C(C)=C/C=C/C(C)=C\C(=O)O)C(C)(C)CCC1 [13-cis-retinoic acid]
- Induction of differentiation of certain neoplastic cells to terminally differentiated cells (certain neoplastic cells): highly active inducers of differentiation
- Prophylactic effect on development of pre-neoplastic and malignant epithelial lesions [5]: exert a prophylactic effect
